# Results as given in paper PMC7369637, “Inhibition of Resistance-Refractory P. falciparum Kinase PKG Delivers Prophylactic, Blood Stage, and Transmission-Blocking Antiplasmodial Activity” (Cell Chemical Biology, 2020).
# System: metabolite levels in Pf trophozoites and schizonts
# Test: Metabolomics (UHPLC-MS) of treated trophozoites and schizonts
# Assay type: cell-based, Plasmodium falciparum
# Conditions: schizonts
# Description: Metabolomics experiments were performed as described elsewhere ([Murithi et al., 2019]). […] Following several washes, metabolites were extracted by 90% methanol containing 0.5 μM ^13C^15N-labelled aspartate as an internal standard. Nitrogen-dried samples were stored at -80°C. Samples were resuspended in high-performance liquid chromatography (HPLC) grade water that contained 1 μM chlorpropamide as an internal standard. They were then analyzed by ultra-high-performance liquid chromatography mass spectrometry UHPLC-MS ([Allman et al., 2016]). Data analysis was performed using the el-MAVEN software and the Metaboanalyst package in R Studio ([Murithi et al., 2019]).
structure (smiles),measurement,value
"O=C1C(O)=C([C@H]2CC[C@H](c3ccc(Cl)cc3)CC2)C(=O)c2ccccc21 [ATQ, Atovaquone]",Log2 fold change in 2-Hydroxy-2-methylbutanedioic acid level,-0.013
same,Log2 fold change in 2_3-Diphosphoglyceric acid level,-0.049
same,Log2 fold change in 3-phosphoglycerate level,-0.461
same,Log2 fold change in 4-aminobutyrate level,0.163
same,Log2 fold change in 4-phosphopantothenate level,-0.471
same,Log2 fold change in 6-phospho-D-gluconate level,-0.038
same,Log2 fold change in ADP-D-glucose level,0.078
same,Log2 fold change in CDP level,-0.939
same,Log2 fold change in CMP level,-0.776
same,Log2 fold change in D-glucosamine-1/6-phosphate level,-0.254
same,Log2 fold change in D-sedoheptulose-1/7-phosphate level,-0.253
same,Log2 fold change in DL-Pipecolic Acid level,0.155
same,Log2 fold change in DLH level,0.054
same,Log2 fold change in DLS level,0.295
same,Log2 fold change in FAD level,0.00635
same,Log2 fold change in FMN level,-0.114
same,Log2 fold change in GDP level,-0.131
same,Log2 fold change in GMP level,0.068
same,Log2 fold change in HVDD level,0.015
same,Log2 fold change in Hexose level,0.028
same,Log2 fold change in IMP level,0.230
same,Log2 fold change in N-Acetyl-L-alanine level,-0.209
same,Log2 fold change in N-acetyl-L-ornithine level,0.067
same,Log2 fold change in N-acetyl-glutamate level,0.069
same,Log2 fold change in N-acetyl-glutamine level,-0.075
same,Log2 fold change in N-carbamoyl-L-aspartate level,2.103
same,Log2 fold change in NAD+ level,-0.089
same,Log2 fold change in NADP+ level,-0.036
same,Log2 fold change in NADPH level,0.265
same,Log2 fold change in Octulose 8/1P level,-0.088
same,Log2 fold change in Octulose Bisphosphate level,-0.059
same,Log2 fold change in PD level,0.272
same,Log2 fold change in PE level,0.257
same,Log2 fold change in PEE level,0.222
same,Log2 fold change in PEEK level,0.220
same,Log2 fold change in PVNF level,-0.058
same,Log2 fold change in Pyroglutamic acid level,-0.420
same,Log2 fold change in Ribose-5-phosphate level,-0.347
same,Log2 fold change in S-adenosyl-L-homocysteine level,-0.090
same,Log2 fold change in Sedoheptulose bisphosphate level,-0.159
same,Log2 fold change in UDP level,-1.390
same,Log2 fold change in UDP-D-glucose level,-0.006
same,Log2 fold change in UDP-D-glucuronate level,-0.062
same,Log2 fold change in UDP-N-acetyl-glucosamine level,-0.391
same,Log2 fold change in UMP level,-1.267
same,Log2 fold change in a-ketoglutarate level,-0.084
same,Log2 fold change in acetyl-CoA level,-0.850
same,Log2 fold change in acetyl-aspartate level,-0.355
same,Log2 fold change in alanine/sarcosine level,-0.266
same,Log2 fold change in arginine level,-0.203
same,Log2 fold change in asparagine level,-0.008
same,Log2 fold change in aspartate level,-0.839
same,Log2 fold change in coenzyme A level,-0.075
same,Log2 fold change in cyclic-AMP level,-0.213
same,Log2 fold change in cytidine level,-0.213
same,Log2 fold change in dCDP level,-0.147
same,Log2 fold change in dCMP level,-0.462
same,Log2 fold change in dCTP level,-0.058
same,Log2 fold change in dGDP/ADP level,-0.147
same,Log2 fold change in dGMP/AMP level,-0.148
same,Log2 fold change in dTDP level,-1.164
same,Log2 fold change in dTMP level,-1.035
same,Log2 fold change in dTTP level,-0.979
same,Log2 fold change in dihydroorotate level,3.181
same,Log2 fold change in folate level,-0.209
same,Log2 fold change in fructose-1-6-bisphosphate level,-0.277
same,Log2 fold change in fructose-6-phosphate level,-0.212
same,Log2 fold change in fumarate level,-0.532
same,Log2 fold change in glutamate level,0.117
same,Log2 fold change in glutamine level,-0.138
same,Log2 fold change in glutathione disulfide level,-0.224
same,Log2 fold change in glutathione level,-0.005
same,Log2 fold change in guanosine level,0.426
same,Log2 fold change in histidine level,-0.171
same,Log2 fold change in hydroxyproline/Aminolevulinate level,-0.254
same,Log2 fold change in hypoxanthine level,-0.139
same,Log2 fold change in inosine level,-0.136
same,Log2 fold change in isoleucine level,-0.252
same,Log2 fold change in lysine level,0.587
same,Log2 fold change in malate level,-0.393
same,Log2 fold change in maleic acid level,-0.266
same,Log2 fold change in methionine level,-0.241
same,Log2 fold change in nicotinate level,-0.183
same,Log2 fold change in orotate level,-1.303
same,Log2 fold change in pantothenate level,-0.167
same,Log2 fold change in phenylalanine level,-0.316
same,Log2 fold change in phosphoenolpyruvate level,-0.095
same,Log2 fold change in proline level,-0.320
same,Log2 fold change in pyruvate level,-1.011
same,Log2 fold change in ribose level,-0.223
same,Log2 fold change in ribose-phosphate level,-0.313
same,Log2 fold change in ribulose-5-phosphate level,-0.261
same,Log2 fold change in serine level,0.028
same,Log2 fold change in sn-glycerol-3-phosphate level,-0.021
same,Log2 fold change in succinate/Methylmalonic acid level,-0.382
same,Log2 fold change in thiamine level,-0.051
same,Log2 fold change in threonine/homoserine level,-0.072
same,Log2 fold change in tryptophan level,-0.203
same,Log2 fold change in tyrosine level,-0.165
same,Log2 fold change in xanthosine level,-0.209
same,Log2 fold change in xanthosine-5-phosphate level,-0.537
